Like-named read-outs stand apart in the source and are kept apart here.

One data set deals with T1, c-MET (Homo sapiens, UniProt P08581).
T1 construct: purchased Cell Signaling Technology, Inc
Kind of data set: In vitro kinase assay (HTScan MET Kinase Assay Kit, colorimetric ELISA). The conditions noted are these: ATP 10 µM; three independent determinations; read-out: Enzymatic Inhibition (IC50, µM) c-MET. It counts as biochemical. Here is the method: In vitro kinase inhibitory ability was determined using HTScan MET Kinase Assay Kit, HTScan VEGF Receptor 2 Kinase Assay Kit, HTScan c-Kit Kinase Assay Kit, HTScan PDGF Receptor β Kinase Assay Kit and HTScan EGFR Kinase Assay Kit(purchased from Cell Signaling Technology, Inc. Danvers, MA, USA) by colorimetric ELISA assay according to the manufacturer’s instructions. Briefly, reaction cocktail containing recombinant human MET kinase or other kinases were incubated with various concentrations of tested compounds or DMSO (0.1%) for 5 min at room temperature, and then ATP/substrate peptide cocktail was added to the pre-incubated reaction cocktail. After incubation at room temperature for 30 min, the reaction was stopped and transferred to a 96-wellstreptavidin-coated plate, and incubated for 1 h at room temperature. Primary antibody (phosphorylated tyrosine monoclonal antibody (pTyr-100), 1:1000 in PBS/T with 1% bovine serum albumin (BSA)) was added into per well until the wells were washed thrice with PBS/T. After incubated at room temperature for 1 h, phosphorylation of the substrate was monitored with HRP-labeled anti-mouse IgG antibody (1:500 in PBS/T with 1% BSA), followed by a chromogenic reaction. Finally, the kinase assay was detected at 450 nm with microplate reader. The reaction processed with only DMSO (0.1%) served as a vehicle control. […] The kinase assay was performed thrice independently.
On the technique in general: In an ELISA, binding on a coated surface is turned into a signal by an enzyme label.

Data set [1] concerns MCF-7 (human breast cancer). Kind of data set: Cell proliferative assay (MTT), MCF-7. It counts as cell-based. Conditions: MCF-7 cells, read-out: Proliferative Inhibition (IC50, µM) MCF-7. Here is the method:
(§1) The anti-proliferative activities of synthesized compounds against HeLa, Hep-G2 and MCF-7 cells were evaluated by MTT assay. HeLa cells were grown to log phase in RPMI 1640 medium supplemented with 10% fetal bovine serum. Hep-G2 and MCF-7 cells were grown to log phase in DMEM medium supplemented with 10% fetal bovine serum. After diluting to […] with the complete medium, 100 µL of the obtained cell suspension was added to each well of 96-well culture plates. The subsequent incubation was permitted at 37 °C, 5% CO2 atmosphere for 48 h before the anti-proliferative assessments. Tested samples at pre-set concentrations were added to 6 wells. Before the anti-proliferative assessments, 20 µL of PBS containing 2.5 mg∙mL^−1 of MTT was added to each well. Four h later, 100 µL extraction solution (DMSO) was added to each well and the optical density was measured at a wavelength of 570 nm on an ELISA microplate reader.

Data set [2] relates to HeLa (human cervical carcinoma). The data set is described as follows: Cell proliferative assay (MTT), HeLa. The format is cell-based. Conditions: HeLa cells, read-out: Proliferative Inhibition (IC50, µM) HeLa. Here is the method: as §1
In data set [3] the test system is Hep-G2 (human liver cancer). The data set is described as follows: Cell proliferative assay (MTT), Hep-G2. The format is cell-based. Conditions: read-out: Proliferative Inhibition (IC50, µM) Hep-G2. Here is the method: as §1
Where [4] appears, read: Homo sapiens, HepG2, Hep-G2 cells.

T1 sequence (P08581 25-1390): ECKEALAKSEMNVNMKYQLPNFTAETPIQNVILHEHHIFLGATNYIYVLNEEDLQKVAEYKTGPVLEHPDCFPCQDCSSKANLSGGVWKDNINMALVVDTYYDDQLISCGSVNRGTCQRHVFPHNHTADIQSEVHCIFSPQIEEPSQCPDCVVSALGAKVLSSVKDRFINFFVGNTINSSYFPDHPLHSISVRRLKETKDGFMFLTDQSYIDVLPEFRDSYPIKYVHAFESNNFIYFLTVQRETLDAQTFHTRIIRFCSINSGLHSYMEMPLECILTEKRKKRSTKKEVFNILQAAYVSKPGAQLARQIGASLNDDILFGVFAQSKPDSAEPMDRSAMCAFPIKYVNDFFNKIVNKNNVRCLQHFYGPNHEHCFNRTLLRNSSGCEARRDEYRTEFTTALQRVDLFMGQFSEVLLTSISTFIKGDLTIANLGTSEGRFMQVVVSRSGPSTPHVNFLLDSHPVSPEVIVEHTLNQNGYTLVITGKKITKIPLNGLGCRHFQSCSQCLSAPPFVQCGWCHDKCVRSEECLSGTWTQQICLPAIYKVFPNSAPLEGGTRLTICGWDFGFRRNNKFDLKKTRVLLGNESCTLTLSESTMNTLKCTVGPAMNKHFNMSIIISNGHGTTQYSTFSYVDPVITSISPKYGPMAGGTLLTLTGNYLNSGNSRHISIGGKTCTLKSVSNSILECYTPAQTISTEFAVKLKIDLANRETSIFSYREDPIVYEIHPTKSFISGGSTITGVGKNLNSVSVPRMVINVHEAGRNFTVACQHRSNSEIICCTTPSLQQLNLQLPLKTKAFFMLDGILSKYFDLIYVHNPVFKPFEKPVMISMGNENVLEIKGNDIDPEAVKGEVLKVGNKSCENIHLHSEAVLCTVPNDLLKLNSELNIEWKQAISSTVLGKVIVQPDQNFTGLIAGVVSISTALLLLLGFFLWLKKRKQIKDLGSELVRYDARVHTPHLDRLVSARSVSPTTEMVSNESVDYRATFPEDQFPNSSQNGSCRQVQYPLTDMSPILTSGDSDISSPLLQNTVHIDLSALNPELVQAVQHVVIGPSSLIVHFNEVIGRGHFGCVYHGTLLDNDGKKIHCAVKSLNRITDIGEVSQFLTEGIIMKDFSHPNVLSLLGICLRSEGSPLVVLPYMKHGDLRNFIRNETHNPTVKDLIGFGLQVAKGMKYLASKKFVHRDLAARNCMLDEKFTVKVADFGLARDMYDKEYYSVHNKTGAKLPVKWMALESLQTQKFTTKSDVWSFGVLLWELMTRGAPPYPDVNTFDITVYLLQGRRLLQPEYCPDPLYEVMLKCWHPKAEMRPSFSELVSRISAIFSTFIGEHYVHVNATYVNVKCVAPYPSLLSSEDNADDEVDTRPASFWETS

For orientation: IC50 means the concentration that gives 50% inhibition. One may read the melting point as the temperature, or range, at which the solid turns liquid. `CC(C)(C)OC(=O)N1CCc2c(sc3ncnc(Oc4ccc(NC(=O)C(C)(C)C(=O)Nc5ccc(F)cc5)cc4F)c23)C1` [Compound 13g, tert-butyl-4-{2-fluoro-4-(3-((4-fluorophenyl)amino)-2,2-dimethyl-3-oxopropanamido)phenoxy}-5,6-dihydropyrido(4’,3’:4,5)thieno(2,3-d)pyrimidine-7(8H)-carboxylate] had a melting point of 126 to 128 °C. Besides, the IC50 at c-MET came out at 9.4 ± 0.6 µM. In data set [1] (Homo sapiens, MCF7, MTT assay), the IC50 was 27.7 ± 0.35 µM. Moreover, in data set [2] (Homo sapiens, HeLa), the half-maximal inhibitory concentration (IC50) was greater than 100 µM. For the same compound, the IC50 in data set [3] (setting [4]) was greater than 100 µM.

Consider `CNC(=O)c1cc(Oc2cccc(C(=O)Nc3ccc(F)cc3)c2)ccn1` [Compound 11f, 4-{3-((4-fluorophenyl)carbamoyl)phenoxy}-N-methylpicolinamide], for which the IC50 at c-MET was 5.3 ± 0.05 µM; in data set [1] (Homo sapiens, MCF7, MTT assay), 42.1 ± 0.27 µM; in data set [2] (Homo sapiens, HeLa) it was 27.8 ± 0.34 µM; in data set [3] (setting [4]), greater than 100 µM.

Consider `CNC(=O)c1cc(Oc2cccc(C(=O)Nc3ccc(Cl)cc3)c2)ccn1` [Compound 11e, 4-{3-((4-chlorophenyl)carbamoyl)phenoxy}-N-methylpicolinamide], for which the 50% inhibitory concentration (IC50) on c-MET was 7.4 ± 0.07 µM; in data set [1] (Homo sapiens, MCF7, MTT assay) it was 34.5 ± 0.36 µM; in data set [2] (Homo sapiens, HeLa) it was 26.4 ± 0.2 µM; in data set [3] (setting [4]) it was greater than 100 µM.

Regarding `CNC(=O)c1cc(Oc2cccc(C(=O)Nc3ccc(OC)c(OC)c3)c2)ccn1` [Compound 11d, 4-{3-((3,4-dimethoxyphenyl)carbamoyl)phenoxy}-N-methylpicolinamide], the 50% inhibitory concentration (IC50) was greater than 10 µM on c-MET; 71.2 ± 0.34 µM in data set [1] (Homo sapiens, MCF7, MTT assay); greater than 100 µM in data set [2] (Homo sapiens, HeLa); greater than 100 µM in data set [3] (setting [4]).

With `CC(C)(C)OC(=O)N1CCc2c(sc3ncnc(Oc4cccc(C(=O)Nc5ccc(F)cc5)c4)c23)C1` [Compound 11i, tert-butyl 4-{3-((4-fluorophenyl)carbamoyl)phenoxy}-5,6-dihydropyrido(4’,3’:4,5)thieno(2,3-d)pyrimidine-7(8H)-carboxylate], the IC50 at c-MET turned out to be 0.05 ± 0.02 µM; in data set [1] (Homo sapiens, MCF7, MTT assay) it was 1.1 ± 0.31 µM; in data set [2] (Homo sapiens, HeLa), 1.5 ± 0.11 µM; in data set [3] (setting [4]) it was 23.2 ± 0.36 µM.

As to “N-(4-fluorophenyl)-N-{4-((2-(methylcarbamoyl)pyridin-4-yl)oxy)phenyl}cyclobutane-1,1-dicarboxamide [Compound 13f]”, the 50% inhibitory concentration (IC50) on c-MET was greater than 10 µM; in data set [1] (MTT assay), greater than 100 µM; in data set [2], 87.8 ± 0.13 µM; in data set [3] (Hep-G2 cells) it was greater than 100 µM.

As to `CNC(=O)c1cc(Oc2cccc(C(=O)Nc3cc(C(C)(C)C)nn3-c3ccccc3)c2)ccn1` [Compound 9b], the IC50 on c-MET is greater than 10 µM; in data set [1] (Homo sapiens, MCF7, MTT assay), 59.7 ± 1.3 µM; in data set [2] (Homo sapiens, HeLa), greater than 100 µM; in data set [3] (setting [4]), greater than 100 µM.

As to `CC(C)(C)OC(=O)N1CCc2c(sc3ncnc(Oc4cccc(C(=O)Nc5ccc(Cl)cc5)c4)c23)C1` [Compound 11h, tert-butyl 4-{3-((4-chlorophenyl)carbamoyl)phenoxy}-5,6-dihydropyrido(4’,3’:4,5)thieno(2,3-d)pyrimidine-7(8H)-carboxylate], the IC50 came out at 0.25 ± 0.08 µM at c-MET; 22.9 ± 0.22 µM in data set [1] (Homo sapiens, MCF7, MTT assay); 10.7 ± 0.18 µM in data set [2] (Homo sapiens, HeLa); 61.9 ± 0.23 µM in data set [3] (setting [4]).

Take “N-(4-fluorophenyl)-N-{4-((2-(methylcarbamoyl)pyridin-4-yl)oxy)phenyl}cyclopropane-1,1-dicarboxamide [Compound 13e]”: the 50% inhibitory concentration (IC50) on c-MET is greater than 10 µM; in data set [1] (MTT assay), greater than 100 µM; in data set [2], 66.7 ± 0.36 µM; in data set [3] (Hep-G2 cells), greater than 100 µM.

Consider `CC(C)(C)OC(=O)N1CCc2c(sc3ncnc(Oc4cccc(C(=O)Nc5cc(C(C)(C)C)nn5-c5ccccc5)c4)c23)C1` [Compound 9c, tert-butyl 4-{3-((3-(tert-butyl)-1-phenyl-1H-pyrazol-5-yl)carbamoyl)phenoxy}-5,6-dihydropyrido(4’,3’:4,5)thieno(2,3-d)pyrimidine-7(8H)-carboxylate], for which the half-maximal inhibitory concentration (IC50) on c-MET was greater than 10 µM; in data set [1] (Homo sapiens, MCF7, MTT assay), 66.7 ± 1.5 µM; in data set [2] (Homo sapiens, HeLa), greater than 100 µM; in data set [3] (setting [4]), greater than 100 µM.
